Measurements published in publication PMC8813674 (Computational and Structural Biotechnology Journal, 2022).
Where two headings read alike, the source gives them in different places.

How the values were obtained:
[1] = test system: porcine epidemic diarrhea virus (PEDV); conditions: for SI (=CC50/EC50): CC50 in eGFP-Vero cells / EC50 against mCherry-PEDV
[2] = test system: porcine epidemic diarrhea virus (PEDV); test: microbe, parasite or virus in culture; conditions: 15 h, read-out: EC50 ± SD

Which results are given for `CCC(CC)COC(=O)[C@H](C)N[P@](=O)(OC[C@H]1O[C@@](C#N)(c2ccc3c(N)ncnn23)[C@H](O)[C@@H]1O)Oc1ccccc1` [Remdesivir]?
Antiviral effect (mCherry expression and syncytia formation) ([1]; 50 µM, 15 h post-infection): completely inhibited; SI (=CC50/EC50) [1]: >37; SI (=CC50/EC50) ([1]; listed as remdesivir): > 37; EC50 [2]: 2710 ± 700 nM
